Drawing on patent US8314121B2, “Imidazolone derivatives, preparation thereof as drugs, pharmaceutical compositions, and use thereof as protein kinase inhibitors, in particular CDC7” (Sanofi, priority 2006, dated 2012), this text covers melting point for 23 compounds.

The structures appear in SMILES notation.

With `O=C1NC(=S)N/C1=C\c1c[nH]c2ncc(-c3ccccc3)cc12` [Example 16, (5Z)-5-[(5-phenyl-1H-pyrrolo[2,3-b]pyridin-3-yl)methylene]-2-thioxoimidazolidin-4-one], the melting point (commonly the temperature of the solid-liquid transition) was 265 to 270 °C.
As to `O=C1NC(N2CCCCCC2)=N/C1=C\c1c[nH]c2ncc(Cl)cc12` [Example 25, (5Z)-2-azepan-1-yl-5-[(5-chloro-1H-pyrrolo[2,3-b]pyridin-3-yl)methylidene]-3,5-dihydro-4H-imidazol-4-one], the melting point lay in the range of 310 to 320 °C.
Consider `O=C1NC(N2CCCC2)=N/C1=C\c1c[nH]c2ncc(Cl)cc12` [Example 27, (5Z)-5-[(5-chloro-1H-pyrrolo[2,3-b]pyridin-3-yl)methylidene]-2-pyrrolidin-1-yl-3,5-dihydro-4H-imidazol-4-one], for which the melting point was 350 to 360 °C.
Take `CC(C)CNC1=N/C(=C\c2c[nH]c3ncc(Cl)cc23)C(=O)N1` [Example 29, (5Z)-5-[(5-chloro-1H-pyrrolo[2,3-b]pyridin-3-yl)methylidene]-2-[(2-methylpropyl)amino]-3,5-dihydro-4H-imidazol-4-one]: the melting point is 325 to 330 °C.
In the case of `O=C1NC(N2CCCCC2)=N/C1=C\c1c[nH]c2ncc(Cl)cc12` [Example 30, (5Z)-5-[(5-chloro-1H-pyrrolo[2,3-b]pyridin-3-yl)methylidene]-2-piperidin-1-yl-3,5-dihydro-4H-imidazol-4-one], the melting point lay within 315 to 320 °C.
Turning to `CN(C)C1=N/C(=C\c2c[nH]c3ncc(Cl)cc23)C(=O)N1` [Example 32, (5Z)-5-[(5-chloro-1H-pyrrolo[2,3-b]pyridin-3-yl)methylidene]-2-(dimethylamino)-3,5-dihydro-4H-imidazol-4-one], the melting point was found to be 350 °C.
On to `COc1cnc2[nH]cc(/C=C3\N=C(NCC4CC4)NC3=O)c2c1` [Example 34, (5Z)-2-[(cyclopropylmethyl)amino]-5-[(5-methoxy-1H-pyrrolo[2,3-b]pyridin-3-yl)methylidene]-3,5-dihydro-4H-imidazol-4-one], for which the melting point was 280 to 286 °C.
As for `O=C1NC(N2CCCCCC2)=N/C1=C\c1c[nH]c2ncc(F)cc12` [Example 36, (5Z)-2-azepan-1-yl-5-[(5-fluoro-1H-pyrrolo[2,3-b]pyridin-3-yl)methylidene]-3,5-dihydro-4H-imidazol-4-one], the melting point amounted to 299 °C.
On to `N#Cc1cnc2[nH]cc(/C=C3\N=C(NCC4CC4)NC3=O)c2c1` [Example 37, 3-[(Z)-{2-[(cyclopropylmethyl)amino]-5-oxo-1,5-dihydro-4H-imidazol-4-ylidene}methyl]-1H-pyrrolo[2,3-b]pyridine-5-carbonitrile], for which the melting point turned out to be 335 °C.
Regarding `O=C1NC(N2CCOCC2)=N/C1=C\c1c[nH]c2ncc(-c3ccccc3)cc12` [Example 39, (5Z)-2-morpholin-4-yl-5-[(5-phenyl-1H-pyrrolo[2,3-b]pyridin-3-yl)methylidene]-3,5-dihydro-4H-imidazol-4-one], the melting point is 361 °C.
`O=C1NC(N2CCCCC2)=N/C1=C\c1c[nH]c2ncc(-c3ccccc3)cc12` [Example 40, (5Z)-5-[(5-phenyl-1H-pyrrolo[2,3-b]pyridin-3-yl)methylidene]-2-piperidin-1-yl-3,5-dihydro-4H-imidazol-4-one]: the melting point was 307 °C.
To `CN1CCN(C2=N/C(=C\c3c[nH]c4ncc(-c5ccccc5)cc34)C(=O)N2)CC1` [Example 41, (5Z)-2-(4-methylpiperazin-1-yl)-5-[(5-phenyl-1H-pyrrolo[2,3-b]pyridin-3-yl)methylidene]-3,5-dihydro-4H-imidazol-4-one] belongs 304 °C; to `O=C1NC(N2CCCCCC2)=N/C1=C\c1c[nH]c2ncc(-c3ccccc3)cc12` [Example 42, (5Z)-2-azepan-1-yl-5-[(5-phenyl-1H-pyrrolo[2,3-b]pyridin-3-yl)methylidene]-3,5-dihydro-4H-imidazol-4-one], 302 °C.
With `Cc1cnc2[nH]cc(/C=C3\N=C(NCC4CC4)NC3=O)c2c1` [Example 43, (5Z)-2-[(cyclopropylmethyl)amino]-5-[(5-methyl-1H-pyrrolo[2,3-b]pyridin-3-yl)methylidene]-3,5-dihydro-4H-imidazol-4-one] the figure was 319 to 320 °C; with `Cc1cnc2[nH]cc(/C=C3\N=C(NCC(C)C)NC3=O)c2c1` [Example 44, (5Z)-2-[(2-methylpropyl)amino]-5-[(5-methyl-1H-pyrrolo[2,3-b]pyridin-3-yl)methylidene]-3,5-dihydro-4H-imidazol-4-one], 338 to 339 °C.
In turn, `Cc1cnc2[nH]cc(/C=C3\N=C(N4CCCCC4)NC3=O)c2c1` [Example 45, (5Z)-5-[(5-methyl-1H-pyrrolo[2,3-b]pyridin-3-yl)methylidene]-2-piperidin-1-yl-3,5-dihydro-4H-imidazol-4-one] showed a melting point of 320 to 321 °C.
To `Cc1cnc2[nH]cc(/C=C3\N=C(N4CCN(c5ccccc5)CC4)NC3=O)c2c1` [Example 46, (5Z)-5-[(5-methyl-1H-pyrrolo[2,3-b]pyridin-3-yl)methylidene]-2-(4-phenylpiperazin-1-yl)-3,5-dihydro-4H-imidazol-4-one] belongs 331 to 332 °C; to `O=C1NC(NCC2CC2)=N/C1=C\c1c[nH]c2ncc(C(F)(F)F)cc12` [Example 48, (5Z)-2-[(cyclopropylmethyl)amino]-5-{[5-(trifluoromethyl)-1H-pyrrolo[2,3-b]pyridin-3-yl]methylidene}-3,5-dihydro-4H-imidazol-4-one], 350 °C.
With `O=C1NC(N2CCCCCC2)=N/C1=C\c1c[nH]c2ncc(C(F)(F)F)cc12` [Example 49, (5Z)-2-azepan-1-yl-5-{[5-(trifluoromethyl)-1H-pyrrolo[2,3-b]pyridin-3-yl]methylidene}-3,5-dihydro-4H-imidazol-4-one] the figure was 340 °C; with `O=C1NC(NCC2CC2)=N/C1=C\c1c[nH]c2ncc(N3CCOCC3)cc12` [Example 51, (5Z)-2-[(cyclopropylmethyl)amino]-5-[(5-morpholin-4-yl-1H-pyrrolo[2,3-b]pyridin-3-yl)methylidene]-3,5-dihydro-4H-imidazol-4-one], 331 °C.
To `CSC1=N/C(=C\c2c[nH]c3ncc(Cl)cc23)C(=O)N1` [Example 60, (5Z)-5-[(5-chloro-1H-pyrrolo[2,3-b]pyridin-3-yl)methylidene]-2-(methylsulphanyl)-3,5-dihydro-4H-imidazol-4-one] belongs greater than 410 °C; to `O=C1NC(SCc2ccccc2)=N/C1=C\c1c[nH]c2ncc(Cl)cc12` [Example 61, (5Z)-2-(benzylsulphanyl)-5-[(5-chloro-1H-pyrrolo[2,3-b]pyridin-3-yl)methylidene]-3,5-dihydro-4H-imidazol-4-one], 313 to 315 °C; to `CCCSC1=N/C(=C\c2c[nH]c3ncc(Cl)cc23)C(=O)N1` [Example 62, (5Z)-5-[(5-chloro-1H-pyrrolo[2,3-b]pyridin-3-yl)methylidene]-2-(propylsulphanyl)-3,5-dihydro-4H-imidazol-4-one], 316 to 318 °C.
